Results on 19 molecules are retold here after PubChem BioAssay (NCI).

What all share (assay): DTP human tumour cell line panel, 48 h
Assay [1] concerns OVCAR-5 ovarian.
Assay [2] has as its system SK-MEL-5 melanoma.
Assay [3] has as its system MALME-3M melanoma.
Assay [4] deals with SNB-19 CNS.
For assay [5], the system named is OVCAR-4 ovarian.
Assay [6] concerns SF-539 CNS.
The subject of assay [7] is OVCAR-3 ovarian.
The subject of assay [8] is SW-620 colon.
The test system of assay [9] is NCI/ADR-RES ovarian.
Assay [10] deals with SF-268 CNS.
The subject of assay [11] is RPMI-8226 leukemia.
For assay [12], the system named is SK-MEL-2 melanoma.
For assay [13], the system named is A549 NSCLC.
Assay [14] has as its system CAKI-1 renal.
The subject of assay [15] is LOX IMVI melanoma.
Assay [16] deals with T-47D breast.
The test system of assay [17] is PC-3 prostate.
Assay [18] deals with DU-145 prostate.
The subject of assay [19] is HS 578T breast.

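Protocol summary: plate cells (96-well), add compound at 5 concentrations, incubate 48 h, interpolate endpoints linearly. Definition used: TGI = concentration required for complete inhibition of growth.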

Consider `C=CC12CN(C)C3C4COC(CC41)C1(C(=O)Nc4ccccc41)C32` (stereo not drawn), for which the TGI in assay [1], in assay [2], in [3], in assay [4], in assay [5] and in assay [6] was above 200 µM in each case. Besides, the TGI in [7], in assay [8], in assay [9], in assay [10], in [11] and in [12] was above 200 µM throughout. Besides, the TGI in assay [13], in assay [14] and in [15] was above 200 µM throughout.

For `CC1=NN(C(=O)c2ccc(Cl)cc2)C(=O)/C1=C/c1cccc([N+](=O)[O-])c1`, the TGI in assay [1], in [2], in assay [3], in assay [4], in assay [5] and in assay [6] was above 100 µM in each case. Further, the TGI in assay [7], in [8], in assay [10], in assay [11], in assay [12] and in [13] was above 100 µM in each case. For the same molecule, the TGI in assay [14] and in [15] was above 100 µM in each case.

On to `Cn1c(=O)nc2n(-c3ccc(Cl)cc3Cl)c3ccccc3nc-2c1=O`, for which the TGI – broadly, the concentration at which net growth stops – in [1] is 49 µM; in assay [2], 3.36 µM; in assay [3], 3.26 µM; in assay [4], 26.5 µM; in assay [5], 15.4 µM; in assay [6] it was 19.3 µM. Further, the TGI is 5.59 µM in [7]; 76 µM in assay [10]; above 100 µM in assay [11]; 17.4 µM in assay [12]; 13.3 µM in [13]; 13.2 µM in assay [14].

Take `CN1CN(c2ccccc2)C2(CCN(CCCC(=O)c3cccs3)CC2)C1=O`: the TGI in assay [1] was 87.4 µM; in assay [2] it was 65 µM; in assay [3], above 100 µM; in assay [4], above 100 µM; in assay [6], 64 µM; in [7], above 100 µM. Also, the TGI in [8], in assay [9], in [16], in [17], in assay [10] and in assay [11] was above 100 µM in each case. Besides, the TGI in assay [18], in assay [13], in [14] and in [15] was above 100 µM each time.

On to `OC(c1ccccc1)(c1ccccc1)c1cccnc1`, for which the TGI in assay [1], in assay [2], in [3], in assay [4], in [5] and in assay [6] was above 100 µM in each case. Moreover, the TGI in [7], in assay [8], in assay [10], in [11], in assay [12] and in assay [13] was above 100 µM in each case. In addition, the TGI in [14] and in assay [15] was above 100 µM throughout.

Turning to `CC(Oc1ccc(OCC2CCCCC2)cc1)C(=O)N(CCO)CCO` (stereo not drawn), the TGI was above 100 µM in assay [2]; above 100 µM in assay [3]; above 100 µM in [4]; above 100 µM in assay [5]; 39.8 µM in assay [6]; above 100 µM in assay [7]. The TGI in [10], in assay [12], in assay [13] and in assay [15] was above 100 µM in each case.

With `C=CCc1ccc(O)c(-c2cc(C3Oc4c(-c5cc(CC=C)ccc5O)cc(O)cc4[C@@H]3CO)ccc2O)c1` (stereo partly drawn), the total growth inhibition concentration (TGI) in [1] was above 100 µM; in assay [2], 65 µM; in assay [3], above 100 µM; in assay [4], 78.7 µM; in assay [5], above 100 µM; in assay [6], 56.3 µM. Further, the TGI in assay [7] was 74.5 µM; in [8], 31.1 µM; in [10] it was 82.5 µM; in [11] it was 65.6 µM; in assay [12], 45.9 µM; in [13] it was above 100 µM. In addition, the TGI is above 100 µM in [14] and 32.3 µM in assay [15].

With `CC(CCc1ccc2c(c1)c(=N)c1ccc(N)cc1n2O)CC(C)(C)C` (stereo not drawn), the TGI in assay [1] was 2.93 µM; in assay [2], 3.01 µM; in [3] it was 3.37 µM; in assay [7] it was 3.19 µM; in assay [8], 3.07 µM; in assay [10], 4.23 µM. The TGI is 4.64 µM in assay [11]; 3.31 µM in [12]; 3.22 µM in assay [13]; 3.19 µM in assay [14]; 3.07 µM in assay [15].

With `COC(=O)[C@@]12OC[C@]34C([C@@H](O)C1O)[C@@]1(C)CC(=O)C(O)=C(C)C1C[C@H]3OC(=O)[C@H](OC(=O)CC(C)C(F)(F)F)[C@H]42` (stereo partly drawn), the TGI in [1] stood at 1.18 µM; in assay [2], 0.0731 µM; in [3], 0.0438 µM; in [4] it was 0.108 µM; in assay [5] it was 0.561 µM; in [6], 0.067 µM. Besides, the TGI in assay [8] was determined as 1.37 µM; in assay [10] it was 0.644 µM; in assay [11], 0.0512 µM; in assay [12], 0.362 µM; in [13] it was 0.492 µM; in assay [14] it was 1.07 µM.

`Cc1cccc(Nc2cn(CCOc3ccccc3)c(=O)n(CCOc3ccccc3)c2=O)c1`: the TGI in assay [1], in assay [2], in [4], in assay [5], in assay [19] and in assay [7] was above 100 µM each time. The TGI in assay [8], in [17], in assay [10], in [11], in assay [18] and in assay [13] was above 100 µM throughout. Moreover, the TGI in assay [14] and in [15] was above 100 µM in each case.

Regarding `O=C1C(=O)N(C2CCCCC2)C(=S)N1C1CCCCC1`, the TGI in assay [1], in assay [2], in assay [3], in assay [4], in assay [5] and in [19] was above 100 µM in each case. Further, the TGI in [6], in [8], in [9], in assay [16], in assay [17] and in assay [10] was above 100 µM each time. For the same molecule, the TGI in assay [11], in assay [18], in assay [12], in [13], in assay [14] and in [15] was above 100 µM in each case.

For `CCOC(CCCN1CCC2(CC1)C(=O)N(C)CN2c1ccccc1)(OCC)c1ccc(F)cc1`, the TGI in [1] stood at 21.6 µM; in assay [2] it was 14.9 µM; in [3], 31.2 µM; in assay [4] it was 22.6 µM; in assay [6], 13.7 µM; in assay [7] it was 26.8 µM. The TGI in assay [8] was found to be 28.7 µM; in [9], 33.5 µM; in assay [16] it was 29.8 µM; in assay [17], 29.6 µM; in assay [10] it was 29.7 µM; in assay [11], 29.9 µM. For the same molecule, the TGI in assay [18] was found to be 46.5 µM; in assay [13] it was 23.9 µM; in [14], 49.2 µM; in assay [15] it was 31 µM.

As for `CC(C)=CCC/C(C)=C/Cc1c(O)ccc2c1[nH]c1cc(O)c(C)cc12`, the TGI in assay [1] was above 25 µM; in assay [2], above 25 µM; in assay [3], above 25 µM; in assay [4] it was above 25 µM; in assay [5], 12.1 µM; in [6], 23.8 µM. In addition, the TGI in assay [7] is 21.2 µM; in assay [8], above 25 µM; in assay [10] it was above 25 µM; in assay [11], above 25 µM; in assay [12], above 25 µM; in assay [13] it was above 25 µM. For the same molecule, the TGI in assay [15] was above 25 µM.

For `CCOC(=O)CN1CCSC1=NC#N`, the TGI in [1], in [2], in [3], in assay [4], in [5] and in assay [6] was above 100 µM in each case. Besides, the TGI in assay [7], in assay [8], in [9], in assay [10], in [11] and in assay [12] was above 100 µM each time. Also, the results for the TGI in assay [13], in [14] and in [15] were above 100 µM, above 100 µM and above 37.6 µM, respectively.

In the case of `COC1CC(n2cnc3c(N)ncnc32)OC1CO` (stereo not drawn), the TGI in assay [1], in [2], in assay [3], in [4], in [5] and in assay [6] was above 100 µM throughout. The TGI in assay [7], in assay [8], in assay [10], in [11], in assay [12] and in assay [13] was above 100 µM in each case. This molecule registered a TGI in [14] above 100 µM.

On to `CC(C)N1CSC(=S)N(Cc2ccccc2)C1`, for which the TGI in assay [2] was above 10 µM; in assay [4], above 10 µM; in [5], above 10 µM; in assay [19] it was above 10 µM; in assay [6], 3.35 µM; in [7], above 10 µM. Besides, the TGI in assay [8], in assay [9], in [16], in assay [17], in assay [10] and in assay [11] was above 10 µM in each case. Moreover, the TGI in assay [13] and in [15] was above 10 µM each time.

`O=C(CC(C(=O)c1ccsc1)c1ccccc1)c1cccs1` (stereo not drawn): the TGI in assay [1], in [2], in assay [5], in assay [19], in [6] and in [7] was above 100 µM throughout. The TGI in assay [8] was above 100 µM; in [9], 67.9 µM; in assay [16], 45.3 µM; in assay [10], above 100 µM; in assay [11], above 100 µM; in assay [18], above 100 µM. Moreover, in assay [14], the TGI was above 100 µM.

Consider `O=C(Nc1ccc([N+](=O)[O-])cc1)C(=O)C(C(=O)c1ccccc1F)C1OC(=O)c2ccccc21` (stereo not drawn), for which the TGI in assay [1] is above 100 µM; in [2], above 100 µM; in [4], above 100 µM; in assay [5] it was above 100 µM; in assay [6] it was 56 µM; in [8] it was above 100 µM. The TGI in [10] is above 100 µM; in [11], 68.9 µM; in assay [12], 71.6 µM; in assay [13], above 100 µM; in [14], above 100 µM; in assay [15], 60.7 µM.

Turning to `Cc1ccc(NC(=O)CC(=O)n2nc(C)c(N=Nc3ccc(S(=O)(=O)CCOS(=O)(=O)O)cc3)c2C)cc1`, the TGI in assay [1], in assay [2], in assay [3], in [4], in assay [19] and in [6] was above 100 µM throughout. Also, the TGI in assay [7], in assay [8], in assay [9], in assay [16], in assay [17] and in assay [10] was above 100 µM in each case. Moreover, the TGI in [11], in assay [18], in assay [12], in [13] and in [15] was above 100 µM each time.
